In patent US8114406B2, “Peptides and their utility in modulation of behavior of cells expressing α3β1 integrins” (The United States of America as represented by the …, priority 1999, dated 2012):
Where two headings read alike, the source gives them in different places. One block for each molecule: values may come before it. Where a SMILES comes first, the peptide text is derived from it. Where no end group is shown, it is not given here.

Experiments:
[1] = test system: MDA-MB-435 breast carcinoma cells; test: Inhibition of MDA-MB-435 cell adhesion to immobilized peptide 678 (microscopic adhesion assay); type: cell-based, human
Description: (§1) Adhesion assays of cells other than small cell lung carcinoma (SCLC)-Adhesion was measured on polystyrene or glass substrates coated with peptides or proteins as previously described (Guo et al., 1992). Peptides dissolved in PBS at 0.4 to 50 μM were incubated in polystyrene microliter plate wells overnight at 4° C. The wells were washed 3 times with distilled water. Adsorbed peptide was quantified using the BCA assay (Pierce Chemical) measuring absorbance at 570 and 630 nm as described by the supplier's protocol. The assay for adsorption was calibrated using purified peptide in solution as a standard. After blocking with 1% BSA in Dulbecco's PBS, adhesion assays were performed by adding cells suspended in DMEM (BAE cells) or medium 199 (human cells) containing 1 mg/ml BSA. Cell attachment and spreading was quantified microscopically.

HUVEC = HUVEC spreading on coated substrates; type: cell-based, human
Description: FIGS. 14A, 14B and 14C display α3β1 and αvβ3 integrin-mediated spreading of endothelial cells on thrombospondin-1. […] Results are expressed as percent of the response for untreated cells, mean±S.D., n=3.
as §1

[2] = test system: MDA-MB-435 breast carcinoma cells
Description: MDA-MB-435 cell adhesion to microliter plate wells coated with 5 uM peptide 678 was determined in the presence of the indicated concentrations of soluble carboxamidomethyl-peptide 716 or peptide 716 covalently linked to FICOLL™ as previously described (Guo et al., 1997). After washing twice to remove unattached cells, adherent cells were quantified by detection of cellular hexosaminidase using p-nitrophenyl-N-acetylglucosaminide as substrate. Released p-nitrophenol was detected by absorbance at 405 nm. Results are mean+/−SD, n=3.
In this case, the adherent cells are quantified by detection of cellular hexosaminidase using p-nitrophenyl-N-acetylglucosaminidine as substrate. Released p-nitrophenol is detected by absorbance at 405 nm.

[3] = test system: MDA-MB-435 breast carcinoma cells; test: Direct adhesion of MDA-MB-435 cells to peptides adsorbed on polystyrene; type: cell-based, human; conditions: peptides adsorbed at 10 μM (FIG. 2)
Description: as §1

[4] = test system: chick chorioallantoic membrane (CAM) angiogenesis; test: Chick chorioallantoic membrane (CAM) angiogenesis assay; type: in vivo, chicken; conditions: relative to control gels, mean ± SD
Description: Fertilized Leghorn chicken eggs were obtained from Ramona Duck farm (Westminster, Calif.). At day 3 of development, the embryos were placed on 100 mm petri dishes. Assays were performed as previously described (Iruela-Arispe et al., 1999). […] Peptides were filtered on Centricon P100 prior to their analysis on the CAM assays to eliminate traces of endotoxin. Pellets were applied to the outer ⅓ of the CAM, and the assay was performed for 24 h. Detection of capillary growth was done by injection of FITC-dextran in the bloodstream and observation of the pellets under a fluorescent inverted microscope. Positive controls (growth factors and vehicle), as well as negative controls (vehicle alone) were placed in the same CAM and used as reference of 100% stimulation or baseline inhibition (0%), and response to the peptides was determined according to these internal controls. Assays were performed in duplicate in each CAM and in four independent CAMs (total of 8 pellets).

H69 SCLC cells = test: SCLC cell adhesion to extracellular matrix proteins, H69; type: cell-based, human
Description: (§2) For adhesion assays of SCLC, these cells were washed once with RPMI 1640 and centrifuged at 400×g for 3 min. The pellet was suspended in 2.5 mM EDTA in PBS, pH 7.4 and incubated for 10 min at 37° C. After trituration three times and centrifugation, the cells were resuspended in RPMI 1640 containing 0.1% BSA (Sigma Co. St Louis, Mo.).
(§3) Adhesion of SCLC cells to extracellular matrix proteins. Extracellular matrix proteins or peptides in Dulbecco's PBS were adsorbed onto polystyrene by incubating overnight at 4° C. […] The supernatant fluid was removed, and the dishes were incubated with Tris-gelatin (ICN) (50 mM Tris-HCl, 110 mM NaCl, 5 mM CaCl2, 0.1 mM phenylmethylsulfonyl fluoride, 0.2% gelatin and 0.02% NaN3, pH 7.8) or Dulbeccos PBS with 1% BSA, as indicated, for 30 min to minimize nonspecific adhesion. The disks were washed twice with cold PBS, pH 7.2 and overlayed with dissociated SCLC cells prepared as described above at a density of 2.5×10^5/cm^2.
(§4) For inhibition studies with SCLC cells, inhibitors or antibodies were added and incubated with SCLC cells at the indicated concentrations. After incubation for 60-90 min at 37° C., the disks were washed by dipping six times in PBS, pH 7.2, fixed with 1% glutaraldehyde in PBS, pH 7.2, and stained with Diff-Quik. Attached cells were counted microscopically.

N417 SCLC cells = test: SCLC cell adhesion to extracellular matrix proteins, N417; type: cell-based, human
Description: as §2, §3, §4

H345 SCLC cells = test: SCLC cell adhesion to extracellular matrix proteins, H345; type: cell-based, human
Description: as §2, §3, §4

[5] = Table 3, 5 μM peptide 678, read-out: IC50 (μM), inhibition of MDA-MB-435 cell adhesion to immobilized peptide 678
[6] = microscopic adhesion assay, polystyrene coated with 5 μM peptide 678, peptides in solution, read-out: Inhibition of peptide 678 (IC50)
[7] = substrate coated at 6.2 μg/ml, mean ± S.D., n = 3

Description for BAE cells: Direct adhesion of BAE cells to the adsorbed peptides or uncoated substrate (control) are presented as mean±SD, n=3. […] Two flasks of BAE cells were grown to confluence. One flask was harvested and replated in fresh medium at 25% confluency. Fresh medium was added at the same time to the second flask. After 16 h, cells from both flasks were dissociated using EDTA and adhesion was measured on substrates coated with 40 μg/ml TSP1, 10 μg/ml vitronectin, 20 μg/ml plasma fibronectin, or 5 μg/ml type I collagen. The percent spread cells after 60 min is presented as mean±SD, n=3 for a representative experiment.
Results are presented as mean±SD, n=3. […] The percent spread cells was determined at 60 min.

Molecule: CC(C)C[C@H](NC(=O)[C@H](CCCNC(=N)N)NC(=O)[C@H](CC(C)C)NC(=O)[C@H](CC(N)=O)NC(=O)[C@H](CCCNC(=N)N)NC(=O)[C@@H](NC(=O)[C@H](CS)NC(=O)CNC(=O)[C@H](CCCNC(=N)N)NC(=O)[C@H](Cc1ccccc1)NC(=O)[C@H](CO)NC(=O)[C@H](C)NC(=O)[C@H](CCCNC(=N)N)NC(=O)[C@H](CO)NC(=O)[C@H](CO)NC(=O)[C@H](CC(C)C)NC(=O)[C@H](CS)NC(=O)[C@H](CC(N)=O)NC(=O)[C@H](CCC(N)=O)NC(=O)[C@@H](N)CCCCN)C(C)C)C(=O)N[C@@H](CO)C(=O)N[C@@H](CCCNC(=N)N)C(=O)O [Peptide 675, reference compound] (H-KQNCLSSRASFRGCVRNLRLSR-OH; N-terminus and C-terminus assumed)
IC50 ([1]; read-out: IC50, inhibition of adhesion to either peptide or TSP1, tested in solution, data not shown): 700 µM

Molecule: CN(Cc1nc2ccccc2[nH]1)C(=O)c1ccc2c(c1)CN(C)C(=O)[C@H](CC(=O)O)N2 [SB223245, reference compound]
inhibition of BAE cell spreading on TSP1 (BAE cells; single agent): partially inhibited
inhibition of HUVEC spreading on TSP1 (HUVEC): did not significantly inhibit
inhibition of HUVEC spreading on vitronectin (HUVEC): completely inhibited

Molecule: Ac-LQNVRF-NH2 [Peptide 681, ac-LQNVRF-am]
IC50 [1, 6]: 500 µM

Molecule: ELTGAARKGSGRRLVKGPD [Hepl, focal adhesion disrupting peptide from the amino terminal domain of TSP1]
promotion of MDA-MB-435 cell adhesion [3]: did not promote

Molecule: GRGDSP [reference compound]
spreading response on TSP1 resistant to the peptide (BAE cells; 300 μM GRGDSP (FIG. 14A)): Approximately 20%
inhibition of BAE cell spreading on TSP1, GRGDSP combined with the α3β1 binding peptide (BAE cells; combination with peptide 678): completely inhibited

Molecule: KRFKQDGGWSHWSPWSS [Peptide 246]
promotion of MDA-MB-435 cell adhesion [3]: promoted adhesion

Molecule: KRFYVVMWKK [Peptide 4N1K]
promotion of MDA-MB-435 cell adhesion [3]: promoted adhesion

Molecule: NGVQYRNC [Peptide 500]
promotion of MDA-MB-435 cell adhesion [3]: weaker adhesive activities

Molecule: SPWSSCSVTCGDGVITRIR [Mal-II]
promotion of MDA-MB-435 cell adhesion [3]: weaker adhesive activities

Molecule: fibronectin
SCLC cell adhesion (H69 SCLC cells; 12.5 μg/ml): 5 ± 1 cells/mm2
SCLC cell adhesion (H69 SCLC cells; 25 μg/ml): 13 ± 3 cells/mm2
SCLC cell adhesion (H69 SCLC cells; 50 μg/ml): 22 ± 7 cells/mm2
SCLC cell adhesion (H69 SCLC cells; [7]): 1 ± 1 cells/mm2
SCLC cell adhesion (N417 SCLC cells; 6.2 μg/ml): 19 ± 2 cells/mm2
SCLC cell adhesion (N417 SCLC cells; 12.5 μg/ml): 48 ± 4 cells/mm2
SCLC cell adhesion (N417 SCLC cells; 25 μg/ml): 86 ± 6 cells/mm2
SCLC cell adhesion (N417 SCLC cells; 50 μg/ml): 78 ± 2 cells/mm2
SCLC cell adhesion (H345 SCLC cells; 6.2 μg/ml): 0 cells/mm2
SCLC cell adhesion (H345 SCLC cells; 12.5 μg/ml): 6 ± 2 cells/mm2
SCLC cell adhesion (H345 SCLC cells; 25 μg/ml): 25 ± 5 cells/mm2
SCLC cell adhesion (H345 SCLC cells; 50 μg/ml): 17 ± 5 cells/mm2

Molecule: laminin: murine laminin-1 purified from the EHS tumor
SCLC cell adhesion (H69 SCLC cells; 12.5 μg/ml): 16 ± 1 cells/mm2
SCLC cell adhesion (H69 SCLC cells; 25 μg/ml): 82 ± 8 cells/mm2
SCLC cell adhesion (H69 SCLC cells; 50 μg/ml): 108 ± 11 cells/mm2
SCLC cell adhesion (H69 SCLC cells; [7]): 1 ± 1 cells/mm2
SCLC cell adhesion (N417 SCLC cells; 6.2 μg/ml): 5 ± 1 cells/mm2
SCLC cell adhesion (N417 SCLC cells; 12.5 μg/ml): 78 ± 3 cells/mm2
SCLC cell adhesion (N417 SCLC cells; 25 μg/ml): 151 ± 6 cells/mm2
SCLC cell adhesion (N417 SCLC cells; 50 μg/ml): 160 ± 3 cells/mm2
SCLC cell adhesion (H345 SCLC cells; 6.2 μg/ml): 6 ± 2 cells/mm2
SCLC cell adhesion (H345 SCLC cells; 12.5 μg/ml): 8 ± 1 cells/mm2
SCLC cell adhesion (H345 SCLC cells; 25 μg/ml): 151 ± 31 cells/mm2
SCLC cell adhesion (H345 SCLC cells; 50 μg/ml): 148 ± 9 cells/mm2

Molecule: peptide 716 conjugated to FICOLL: peptide 716 covalently linked to FICOLL (polysucrose) (FQGVLQNVRFVF; not fully specified (N-terminus); also: number of peptides per FICOLL polymer not given here)
inhibition of adhesion of MDA-MB-435 cells to peptide 678, compared to free peptide 716 ([2]; hexosaminidase detection): enhanced

B1: vitronectin: human vitronectin from Sigma (protein, UniProt P04004 20-478, looked up)
Vitronectin: DQESCKGRCTEGFNVDKKCQCDELCSYYQSCCTDYTAECKPQVTRGDVFTMPEDEYTVYDDGEEKNNATVHEQVGGPSLTSDLQAQSKGNPEQTPVLKPEEEAPAPEVGASKPEGIDSRPETLHPGRPQPPAEEELCSGKPFDAFTDLKNGSLFAFRGQYCYELDEKAVRPGYPKLIRDVWGIEGPIDAAFTRINCQGKTYLFKGSQYWRFEDGVLDPDYPRNISDGFDGIPDNVDAALALPAHSYSGRERVYFFKGKQYWEYQFQHQPSQEECEGSSLSAVFEHFAMMQRDSWEDIFELLFWGRTSAGTRQPQFISRDWHGVPGQVDAAMAGRIYISGMAPRPSLAKKQRFRHRNRKGYRSQRGHSRGRNQNSRRPSRATWLSLFSSEESNLGANNYDDYRMDWLVPATCEPIQSVFFFSGDKYYRVNLRTRRVDTVDPPYPRSIAQYWLGCPAPGHL
percent spread BAE cells on substrate (BAE cells; cells harvested from a confluent monolayer): approximately 60%

Now from value to molecule, other results behind:

IC50 [1, 5]: 5 µM
IC50 [1, 6]: 5 µM
Molecule: AQGVLQNVRFVF [Peptide 697]

IC50 [2]: ~100 µM
Molecule: Ac-QGVLQNVRF-OH [Peptide 704]

IC50 [2]: 12 µM
IC50 [1, 5]: 1.8 µM
IC50 [1, 6]: 1.8 µM
Molecule: FAGVLQNVRFVF [Peptide 696]
Angiogenic response (% inhibition) ([4]; 5 μM peptide): 5 ± 2%
Angiogenic response (% inhibition) ([4]; 10 μM peptide): 9 ± 3%
Angiogenic response (% inhibition) ([4]; 20 μM peptide): 12 ± 4%

IC50 [1, 5]: 5 µM
IC50 [1, 6]: 5 µM
Molecule: FQGVAQNVRFVF [Peptide 695]

IC50 [1, 5]: 3 µM
IC50 [1, 6]: 3 µM
Molecule: FQGVLANVRFVF [Peptide 687]

IC50 [1, 6]: 3 µM
Molecule: FQGVLNNVRFVF [Peptide 698]

IC50 [1, 5]: > 300 µM
IC50 [1, 6]: > 300 µM
Molecule: FQGVLQNARFVF [Peptide 691]

IC50 [1, 5]: 54 µM
IC50 [1, 6]: 54 µM
Molecule: FQGVLQNVHFVF [Peptide 694]

IC50 [2]: 25 µM
IC50 [1, 5]: 6 µM
IC50 [1, 6]: 6 µM
Molecule: FQGVLQNVKFVF [Peptide 702]

IC50 [2]: 300 µM
IC50 [1, 5]: > 100 µM
IC50 [1, 6]: > 100 µM
Molecule: FQGVLQNVQFVF [Peptide 703]

IC50 [1, 5]: 18 µM
IC50 [1, 6]: 18 µM
Molecule: FQGVLQNVRAVF [Peptide 692]

IC50 [1, 6]: 6 µM
Molecule: FQGVLQNVRF [Peptide 682]

IC50 [1, 5]: 27 µM
IC50 [1, 6]: 27 µM
Molecule: FQGVLQNVRFVA [Peptide 693]

IC50 [1, 6]: 300 µM
Molecule: LQNVRFVF [Peptide 684]

IC50 [1, 6]: > 300 µM
Molecule: QGVLQNVR [Peptide 683]

IC50 [1, 6]: 24 µM
Molecule: QGVLQNVRFVF [Peptide 685]

IC50 [1, 6]: > 300 µM
Molecule: TPGQVRTLWHDP [Peptide 701]

IC50 [1, 6]: > 100 µM
Molecule: VLQNVRFVF [Peptide 688]
